Measurements: patent US12002595B2, “Separation of metal ions by liquid-liquid extraction” (priority 2016, dated 2024)

How the values were obtained:
[1] = Stability constant (log β) of ligand-metal complexes; format: binding; conditions: 25.0° C., 0.1 M KCl
Experimental: Solution Thermodynamics. All titrant solutions were degassed by boiling for 1 h while being purged under Ar. Carbonate-free 0.1 M KOH was prepared from concentrate (J. T Baker Dilut-It) and was standardized by titrating against 0.1 M potassium hydrogen phthalate (99.95%, Sigma Aldrich). Solutions of 0.1 M HCl were similarly prepared and were standardized by titrating against TRIS (99.9%, J. T. Baker). The glass electrode (Metrohm—Micro Combi—response to [H+]) used for the pH measurements was calibrated at 25.0° C. and at an ionic strength of 0.1 M (KCl) before each potentiometric or spectrophotometric titration. The calibration data were analyzed using the program GLEE (Gans & O'Sullivan, Talanta, 2000, 51 (1): 33-37) to refine for the E° and slope. All thermodynamic measurements were conducted at 25.0° C., in 0.1 M KCl supporting electrolyte under positive Ar gas pressure. The automated titration system was controlled by an 867 pH Module (Metrohm). Two-milliliter Dosino 800 burets (Metrohm) dosed the titrant (0.1 M KOH or 0.1 M HCl) into the thermostated titration vessel (5-90 mL). UV-visible spectra were acquired with an Ocean Optics USB4000-UV-vis spectrometer equipped with a TP-300 dip probe (Ocean Optics; path length of 10 mm), fiber optics and a DH-2000 light source (deuterium and halogen lamps). The fully automated titration system and the UV-vis spectrophotometer were coordinated by LBNL titration system, a computer program developed in house.
Incremental Spectrophotometric Titrations. This method was used to determine the protonation constants of 3,4,3-LI(CAM) as well as the stability constants of its complexes formed with Eu(III), Zr(IV) and ^232Th(IV). The experimental titration setup is similar to previously described systems (Sturzbecher-Hoehne, et al., Radiochimica Acta., 2013, 101 (6): 359-366). For the 3,4,3-LI(CAM) protonation (and Eu(III)-3,4,3-LI(CAM) complexes), titrations were performed with an initial concentration of 50 μM of 3,4,3-LI(CAM) (and 50 μM of Eu(III)) resulting in absorbance values included between 0 and 1.0 throughout the titration. Typically, 9 mL of a sample containing 3,4,3-LI(CAM) (and Eu(III)) and the supporting electrolyte (KCl/HCl) were incrementally perturbed by addition of 0.025 mL of carbonate-free 0.1 M KOH followed by a time delay of 80 s. Buffering of the solution was ensured by the addition of 10 mM of HEPES, 10 mM of CHES and 10 mM of MES. Between 130 and 250 data points were collected per titration, each data point including a pH measurement and a UV-Vis spectrum (250-450 nm) over the pH range 1.5 to 12.0. All spectra were corrected for dilution before data fitting. The entire procedure (electrode calibrate, titration and data treatment) was performed independently five times for the protonation constants and four times for the Eu(III)-3,4,3-LI(CAM) complexes. For the Zr(IV) and Th(IV) complexes, titrations were performed similarly but in the presence of DTPA to avoid the formation of metal hydroxides at low pH, before the uptake by 3,4,3-LI(CAM). For each metal, three titrations were performed independently in the presence of 1.1 to 40 equivalents of DTPA.
Data Treatment. […] All metal and chelator concentrations were held at estimated values determined from the volume of standardized stock solutions. All species formed with 3,4,3-LI(CAM) were considered to have significant absorbance to be observed in the UV-vis spectra and were therefore included in the refinement process. […]

[2] = Extraction by HDEHP with 1 mM 343HOPO in 0.1 M HNO3 and 1.9 M NaNO3; conditions: chelator in place of 343HOPO; acidic conditions
Experimental: Aqueous phase: 1 mM 343HOPO in 0.1 M HNO3 and 1.9 M NaNO3. Organic phase: HDEHP in kerosene.
A log scale is used for clarity. See FIGS. 58A and 58B for results as a function of the phase ratio.
(§1) For Example 20—Example 24, pH measurements were performed with a glass electrode (Metrohm-Micro Combi-response to [H+]) calibrated at 25.0° C. using three NIST standards. Extraction samples were analyzed by liquid scintillation counting (LSC). The distribution coefficient, D(M), of a given metal, M, is defined in Eq. 1, where [M]organic and [M]aqueous are the respective total concentrations of M in the organic and aqueous layers, after extraction. Both concentrations are proportional to the volumetric activity (in Bq/L) determined by LSC. The separation factor, SFM1/M2, between two metals, M1 and M2, and extraction yield were calculated according to Eq. 2 and Eq. 3, respectively.
(§2) In a typical experiment, the solvent (extractant diluted in kerosene) was pre-conditioned by shaking one volume of solvent with three volumes of aqueous phase (typically HNO3) at room temperature for 1 h, thrice. For radioisotope extractions, at least 400 μL aqueous phase (typically containing HNO3, a chelator and a radioisotope) and solvent were placed in air-tight screw-capped plastic tubes, triply-contained, and shaken in a thermoshaker at 300 rpm, 25° C., for at least 30 min. Samples were then centrifuged for 5 min at 3000 rpm and phases separated before analysis. LSC analyses were performed on a Packard Tri-Carb B4430 instrument (Perkin Elmer) after mixing sample aliquots or sample dilution aliquots (10 to 200 μL) with 10 mL of scintillation cocktail (UltimaGold LLT). Samples were counted for at least 6 min and results were background subtracted. The analytical samples contained between 0 and 800,000 CPM. Mixtures of ^249Bk and ^249Cf were analyzed using α/β discrimination and energy windows were set to 0-50 keV for low-energy β particles of ^249Bk and 50-1000 keV for α particles of ^249Cf. ^243Am and ^225Ac samples were counted at secular equilibrium.

[3] = Extraction by TODGA from HNO3 in the absence or presence of 1 mM 343HOPO
Experimental: Organic phase: 0.1 M TODGA in kerosene. Aqueous solvent: HNO3. T=25° C. O/A=1, one contact. Points with arrows are lower limits.
as §1, §2

[4] = Eu(III), I=2.0 M at 25° C.; cited from earlier work

With `O=C(NCCCN(CCCCN(CCCNC(=O)c1cccc(O)c1O)C(=O)c1cccc(O)c1O)C(=O)c1cccc(O)c1O)c1cccc(O)c1O` [3,4,3-LI(CAM)] the “log β110” value ([1]; [Eu-3,4,3-LI(CAM)]^5−) was 29.7, the “log β110” value ([1]; [Th-3,4,3-LI(CAM)]^4−) was 47.7 and the “log β110” value ([1]; [Zr-3,4,3-LI(CAM)]^4−) was 57.3.
For `O=C(O)CN(CC(=O)O)[C@H]1CCCC[C@@H]1N(CC(=O)O)CC(=O)O` [CDTA, Trans-1,2-cyclohexanediamine-N,N,N′,N′-tetraacetic acid], the “separation between Bk and Cf” value [2] was “no separation at all”.
In the case of `O=C(O)CN(CCN(CC(=O)O)CC(=O)O)CC(=O)O` [EDTA, Ethylenediaminetetraacetic acid], the “separation between Bk and Cf” value [2] is reported as “no separation at all”.
For `O=C(O)CN(CC(=O)O)CC(=O)O` [NTA, Nitrilotriacetic acid], the “separation between Bk and Cf” value [2] was “no separation at all”.
In the case of `CCCCCCCCN(CCCCCCCC)C(=O)COCC(=O)N(CCCCCCCC)CCCCCCCC` [TODGA, N,N,N′,N′-tetraoctyl diglycolamide, reference compound], the “distribution factor of uranyl (Du)” value ([3]; TODGA as extractant) is reported as less than 30 and the “extraction yields of Gd^3+, Lu^3+, UO2^2+, Pu^4+, and Cf^3+ from HNO3” value ([3]; if HNO3>1 M, no chelator, 0.1 M TODGA in kerosene) is reported as greater than 99.5%.
For `CC(O)C(=O)O` (stereo not drawn) [lactate], the “log β130” value [4] is listed as 5.88.
